Laboratory results reported in article PMC11348465, “Pharmacochemical Study of Multitarget Amino Acids’ Hybrids: Design, Synthesis, In vitro, and In silico Studies” (Medicinal Chemistry (Shariqah (United Arab Emirates), 2024).
Read-outs that look alike come from different tables or passages of the source.

Assays:
[1] = target: T1, soybean lipoxygenase (LOX-1) (Glycine max, UniProt P08170); test: Soybean lipoxygenase inhibition study; assay type: biochemical; details: for LOX inhibition (%): % inhibition at 100 µM; for inhibition at 100 µM: read-out: LOX inhibition (%)
T1 construct: purchased Sigma Chemical, Co. (St Louis, MO, USA)
T1 sequence (P08170 1-839): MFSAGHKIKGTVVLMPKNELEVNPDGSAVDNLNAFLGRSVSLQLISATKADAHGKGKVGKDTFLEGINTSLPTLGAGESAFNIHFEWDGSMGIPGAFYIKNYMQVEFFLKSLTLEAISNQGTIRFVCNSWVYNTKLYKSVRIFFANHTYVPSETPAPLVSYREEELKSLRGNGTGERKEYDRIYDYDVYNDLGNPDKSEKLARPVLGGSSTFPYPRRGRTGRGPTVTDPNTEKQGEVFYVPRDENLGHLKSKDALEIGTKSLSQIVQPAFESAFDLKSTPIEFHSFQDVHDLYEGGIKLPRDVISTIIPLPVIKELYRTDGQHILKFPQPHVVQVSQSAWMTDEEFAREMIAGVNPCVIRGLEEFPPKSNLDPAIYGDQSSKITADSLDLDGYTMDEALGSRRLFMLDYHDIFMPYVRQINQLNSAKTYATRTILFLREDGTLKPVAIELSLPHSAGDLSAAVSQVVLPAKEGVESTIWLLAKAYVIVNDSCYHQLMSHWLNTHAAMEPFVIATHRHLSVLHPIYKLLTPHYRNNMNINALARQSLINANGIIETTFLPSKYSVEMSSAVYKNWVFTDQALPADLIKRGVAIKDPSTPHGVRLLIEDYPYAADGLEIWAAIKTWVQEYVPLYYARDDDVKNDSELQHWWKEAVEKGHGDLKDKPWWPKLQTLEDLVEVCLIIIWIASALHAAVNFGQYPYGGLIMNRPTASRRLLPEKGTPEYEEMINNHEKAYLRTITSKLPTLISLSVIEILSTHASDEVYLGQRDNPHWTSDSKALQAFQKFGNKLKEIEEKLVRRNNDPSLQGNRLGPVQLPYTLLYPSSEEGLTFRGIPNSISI
Experimental: Our group evaluated an in vitro study as reported previously. The tested hybrids were incubated at room temperature with sodium linoleate (100 µM) and 200 µL of enzyme solution (1/9 X 10^-4 w/v in saline). […] Different concentrations were used for the determination of IC50. A blank determination was used as a negative control.
Due to the limited work on sufficiently purified human ALOX-5 isoenzyme, most of the published research was performed on the soybean homolog. […] This study used the soybean isoenzyme LOX-1, which exerts maximal activity at pH 9.0 [72].

[2] = Inhibition of linoleic acid peroxidation (AAPH-induced)
Experimental: Our group evaluated the in vitro study as reported previously. Ten 16 mM sodium linoleate solution microliters were added to the UV cuvette containing 93 µL of a 0.05 M phosphate buffer, pH 7.4, and 10 µL of the tested compounds (final concentration 100 µM). The oxidation reaction started at 37 °C under air by adding 50 µL of the free radical initiator AAPH (40 mM). Oxidation was carried out and monitored at 234 nm. DMSO under the same conditions was used as a negative control. Trolox was used as the appropriate standard (positive control). The results are given in Table S1 in the supplementary material.
We used the water-soluble 2, 2’-azobis(2-amidinopropane) hydrochloride (AAPH) to generate in vitro peroxyl radicals through spontaneous thermal decomposition, which resembles cellular lipid peroxidation due to the activity of the undertaken radicals. The anti-lipid peroxidation activities were compared to a well-known antioxidant, i.e., Trolox (Table S1 in the supplementary material). […] In general, the anti-lipid peroxidation ranged from 8-99%. Except for acids 11, 12, 17, 19, 21, 22, 24, 25, and 28, which present high antioxidant activities (on the high % level), the other cinnamic acids present low or medium activity.

ovine COX-2 = target: T2, ovine COX-2 (Ovis aries, UniProt P79208); test: Cyclooxygenase-2 inhibition study; assay type: biochemical; details: for COX-2 inhibition (%): % inhibition at 100 µM; for IC50: read-out: COX-2 inhibition (IC50)
T2 construct: purchased Cayman (USA)
T2 sequence (P79208 17-603): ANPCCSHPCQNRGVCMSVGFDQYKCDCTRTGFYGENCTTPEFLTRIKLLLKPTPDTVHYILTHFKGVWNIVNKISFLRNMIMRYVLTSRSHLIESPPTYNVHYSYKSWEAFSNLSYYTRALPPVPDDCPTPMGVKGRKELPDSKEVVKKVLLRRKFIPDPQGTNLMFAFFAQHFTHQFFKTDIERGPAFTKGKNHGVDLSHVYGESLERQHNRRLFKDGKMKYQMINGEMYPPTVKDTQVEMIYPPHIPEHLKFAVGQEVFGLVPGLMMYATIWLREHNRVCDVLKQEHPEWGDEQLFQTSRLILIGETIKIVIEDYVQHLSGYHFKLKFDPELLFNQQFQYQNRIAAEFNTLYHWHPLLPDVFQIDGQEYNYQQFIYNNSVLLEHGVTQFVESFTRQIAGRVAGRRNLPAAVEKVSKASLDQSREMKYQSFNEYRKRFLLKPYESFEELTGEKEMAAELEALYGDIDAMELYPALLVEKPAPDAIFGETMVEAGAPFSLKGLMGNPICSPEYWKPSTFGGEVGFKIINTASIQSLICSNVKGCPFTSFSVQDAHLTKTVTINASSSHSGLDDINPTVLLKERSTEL
Experimental: The in vitro study of cyclooxygenase (COX) activity was determined by using arachidonic acid (AA) as the substrate and N,N,N’,N’-tetramethylphenylenediamine (TMPD) as the co-substrate. […] The absorption due to the spontaneous oxidation of TMPD was subtracted from the initial rate of oxidation observed in the presence of AA. […] A blank determination was used first to serve as a negative control. Indomethacin was used as a reference COX-2 inhibitor (positive control).
The role of COX-2 in neurodegenerative diseases has been reported, and COX-2 inhibition is considered of high importance as a therapeutic tool. The designed derivatives were tested for their COX-2 inhibition activity on the ovine COX-2 enzyme. […] Indomethacin was used as a reference compound.

[3] = read-out: LOX inhibition (IC50)

SMILES | IC50 [1, 3] | AAPH inhibition (%, at 100 µM) [2] | LOX inhibition (%) [1] | other results
CCOC(=O)CNC(=O)/C=C/c1ccc(O)c(OC)c1 [Compound 24a] | 100 µM | 82% | – | –
CCOC(=O)CNC(=O)/C=C/c1ccc(OC)c(OC)c1 [Compound 18a] | 62.5 µM | 99% | – | COX-2 inhibition (%) (ovine COX-2): 14%
CCOC(=O)CNC(=O)/C=C/c1cc(OC)ccc1OC [Compound 19a] | – | 89% | 28% | –
COC(=O)CCCNC(=O)/C=C/c1ccc(OC)c(OC)c1 [Compound 18b] | – | 75% | 40% | –
CCOC(=O)CNC(=O)/C=C/c1cccs1 [Compound 21a] | – | 15% | 20% | IC50 (ovine COX-2): 55 µM
CCOC(=O)CNC(=O)/C=C/c1ccc(C(F)(F)F)cc1 [Compound 13a] | – | 8% | 31% | –
COC(=O)CC[C@H](NC(=O)/C=C/c1cc(OC)ccc1OC)C(=O)OC [Compound 19c] | – | 64% | 7% | –
COC(=O)CC[C@H](NC(=O)/C=C/c1ccc(Br)cc1)C(=O)OC [Compound 14c] | 75 µM | 38% | – | –
COC(=O)CC[C@H](NC(=O)/C=C/c1ccc(OC(C)=O)cc1)C(=O)OC [Compound 30c] | 100 µM | 16% | – | COX-2 inhibition (%) (ovine COX-2): 6%
O=C(O)/C=C/c1ccc(O)cc1 [Compound 25, p-coumaric acid] | – | 76% | – | IC50 (ovine COX-2): 62 µM; IC50 [1]: 10 µM
COC(=O)CC[C@H](NC(=O)/C=C/c1ccc(F)cc1)C(=O)OC [Compound 27c] | – | 10% | 8% | IC50 (ovine COX-2): 72.5 µM
CCOC(=O)CNC(=O)/C=C/c1ccc2c(c1)OCO2 [Compound 20a] | – | 70% | 6% | IC50 (ovine COX-2): 75 µM
COC(=O)CC[C@H](NC(=O)/C=C/c1ccc(C(F)(F)F)cc1)C(=O)OC [Compound 13c] | 80 µM | 37% | – | –
CCOC(=O)CNC(=O)/C=C/c1cccc(Br)c1 [Compound 15a] | 57.5 µM | 26% | – | –
COC(=O)CC[C@H](NC(=O)/C=C/c1ccc(O)cc1)C(=O)OC [Compound 25c] | 63 µM | 78% | – | –
COC(=O)CC[C@H](NC(=O)/C=C/c1ccc(OC)c(OC)c1)C(=O)OC [Compound 18c] | 57.5 µM | 74% | – | –
O=C(O)/C=C/c1ccc2c(c1)OCO2 [Compound 20] | – | 31% | – | inhibition at 100 µM [1]: 27%

SMILES | IC50 [1, 3] | AAPH inhibition (%, at 100 µM) [2] | LOX inhibition (%) [1] | other results
CCOC(=O)CNC(=O)/C=C/c1ccccc1 [Compound 22a] | – | 5% | 0% | IC50 (ovine COX-2): 5 µM
COC(=O)CC[C@H](NC(=O)/C=C/c1cccc(Br)c1)C(=O)OC [Compound 15c] | 75 µM | – | – | –
COC(=O)CCCNC(=O)/C=C/c1cccs1 [Compound 21b] | – | 73% | 0% | COX-2 inhibition (%) (ovine COX-2): 38%
COC(=O)CC[C@H](NC(=O)/C=C/c1ccc2c(c1)OCO2)C(=O)OC [Compound 20c] | – | 20% | 19% | –
COC(=O)CCCNC(=O)/C=C/c1ccc(Br)cc1 [Compound 14b] | – | 11% | 12% | –
COC(=O)CC[C@H](NC(=O)/C=C/c1cccs1)C(=O)OC [Compound 21c] | 100 µM | 41% | – | –
COC(=O)CC[C@H](NC(=O)/C=C/c1ccc(C#N)cc1)C(=O)OC [Compound 26c] | – | – | 10% | –
COC(=O)CC[C@H](NC(=O)/C=C/c1ccccc1)C(=O)OC [Compound 22c] | – | 39% | 10% | –
COC(=O)CCCNC(=O)/C=C/c1ccc(O)c(OC)c1 [Compound 24b] | 100 µM | 34% | – | –
COC(=O)CCCNC(=O)/C=C/c1ccc(OCc2ccc(Br)cc2)cc1 [Compound 11b] | – | 19% | 30% | –
COC(=O)CC[C@H](NC(=O)/C=C/c1cccc(Oc2ccccc2)c1)C(=O)OC [Compound 12c] | 60 µM | 65% | – | –
COC(=O)CCCNC(=O)/C=C/c1ccc2c(c1)OCO2 [Compound 20b] | 67.5 µM | 9% | – | –
CC(=O)Oc1ccc(/C=C/C(=O)O)cc1 [Compound 30, (E)-3-(4-acetoxyphenyl) acrylic acid] | – | 33% | – | inhibition at 100 µM [1]: 23%
CC1(C)Oc2ccc(/C=C/C(=O)O)cc2O1 [Compound 29, (E)-3-(2,2-dimethylbenzo[d][1, 3]dioxol-5-yl)acrylic acid] | – | 56% | – | inhibition at 100 µM [1]: 46%
COC(=O)CCCNC(=O)/C=C/c1ccc(O)cc1 [Compound 25b] | – | 66% | 10% | –
CCOC(=O)CNC(=O)/C=C/c1cccc2ccccc12 [Compound 17a] | – | – | 23% | –
